# Assays:
# Assay in all cases: Test B preemergence
# Assay type in all cases: in vivo
# [1] = system: Surinam grass (Brachiaria decumbens)
# Summary of the method: (§1)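 Seeds were planted and sprayed preemergence with test chemical in a non-phytotoxic solvent mixture containing surfactant; postemergence plants (2 to 18 cm, 1- to 4-leaf stage) received the same formulation. Greenhouse hold 13 to 15 days, then visual rating versus untreated controls on a 0–100 scale (0 no effect, 100 complete control).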
# [2] = system: giant foxtail (Setaria faberii)
# Summary of the method: as §1
# [3] = system: barnyardgrass (Echinochloa crus-galli)
# Summary of the method: as §1
# [4] = system: corn (Zea mays)
# Summary of the method: as §1
# [5] = system: lambsquarters (Chenopodium album)
# Summary of the method: as §1
# [6] = system: crabgrass (Digitaria sanguinalis)
# Summary of the method: as §1
# [7] = system: velvetleaf (Abutilon theophrasti)
# Summary of the method: as §1
# [8] = system: pigweed (Amaranthus retroflexus)
# Summary of the method: as §1
# [9] = system: cocklebur (Xanthium strumarium); details: scale 0 to 100, 0 no effect, 100 complete control
# Summary of the method: as §1
# [10] = system: morning glory (Ipomoea hederacea)
# Summary of the method: as §1
# [11] = system: rice (Oryza saliva)
# Summary of the method: as §1
# [12] = Preemergence, Rate 500 g/ha, scale 0 to 100, 0 no effect, 100 complete control
# [13] = preemergence, Rate 125 g/ha, scale 0 to 100, 0 no effect, 100 complete control
# [14] = preemergence, Rate 62 g/ha, scale of 0 to 100 where 0 is no effect and 100 is complete control, 13 to 15 days
# [15] = preemergence, Rate 250 g/ha, scale 0 to 100, 0 no effect, 100 complete control
smiles,measurement,setting,value
CC(C)(C)c1ccn(C2SCN(c3cccc(C(F)(F)F)c3)C2=O)n1 (centres unmarked) [Compound 1],"Plant response rating, Surinam grass",[1]; [12],0
same,"Plant response rating, Surinam grass",[1]; [13],0
same,"Plant response rating, Foxtail, Giant",[2]; [12],100
same,"Plant response rating, Foxtail, Giant",[2]; [13],50
same,"Plant response rating, Barnyardgrass",[3]; [12],100
same,"Plant response rating, Barnyardgrass",[3]; [13],50
same,"Plant response rating, Corn",[4]; [12],20
same,"Plant response rating, Corn",[4]; [13],0
same,"Plant response rating, Lambsquarters",[5]; [12],100
same,"Plant response rating, Lambsquarters",[5]; [13],100
same,"Plant response rating, Crabgrass",[6]; [12],100
same,"Plant response rating, Crabgrass",[6]; [13],0
same,"Plant response rating, Velvetleaf",[7]; [12],30
same,"Plant response rating, Velvetleaf",[7]; [13],0
same,"Plant response rating, Pigweed",[8]; [12],100
same,"Plant response rating, Pigweed",[8]; [13],100
same,"Plant response rating, Cocklebur","[9]; Preemergence, Rate 500 g/ha",40
same,"Plant response rating, Cocklebur","[9]; preemergence, Rate 125 g/ha",0
same,"Plant response rating, Morningglory",[10]; [12],40
same,"Plant response rating, Morningglory",[10]; [13],20
CC1(C)CCc2cn(C3CCN(c4cccc(C(F)(F)F)c4)C3=O)nc21 (centres unmarked) [Compound 10],"Plant response rating, Surinam grass",[1]; [12],0
same,"Plant response rating, Surinam grass",[1]; [14],20
same,"Plant response rating, Surinam grass",[1]; [13],0
same,"Plant response rating, Surinam grass",[1]; [15],30
same,"Plant response rating, Foxtail, Giant",[2]; [12],0
same,"Plant response rating, Foxtail, Giant",[2]; [14],80
same,"Plant response rating, Foxtail, Giant",[2]; [13],0
same,"Plant response rating, Foxtail, Giant",[2]; [15],100
same,"Plant response rating, Barnyardgrass",[3]; [12],0
same,"Plant response rating, Barnyardgrass",[3]; [14],0
same,"Plant response rating, Barnyardgrass",[3]; [13],0
same,"Plant response rating, Barnyardgrass",[3]; [15],100
same,"Plant response rating, Corn",[4]; [12],0
same,"Plant response rating, Corn",[4]; [14],0
same,"Plant response rating, Corn",[4]; [13],0
same,"Plant response rating, Corn",[4]; [15],30
same,"Plant response rating, Lambsquarters",[5]; [12],0
same,"Plant response rating, Lambsquarters",[5]; [14],100
same,"Plant response rating, Lambsquarters",[5]; [13],0
same,"Plant response rating, Lambsquarters",[5]; [15],100
same,"Plant response rating, Crabgrass",[6]; [12],0
same,"Plant response rating, Crabgrass",[6]; [14],100
same,"Plant response rating, Crabgrass",[6]; [13],0
same,"Plant response rating, Crabgrass",[6]; [15],100
same,"Plant response rating, Velvetleaf",[7]; [12],0
same,"Plant response rating, Velvetleaf",[7]; [14],0
same,"Plant response rating, Velvetleaf",[7]; [13],0
same,"Plant response rating, Velvetleaf",[7]; [15],0
same,"Plant response rating, Pigweed",[8]; [12],0
same,"Plant response rating, Pigweed",[8]; [14],90
same,"Plant response rating, Pigweed",[8]; [13],0
same,"Plant response rating, Pigweed",[8]; [15],100
same,"Plant response rating, Cocklebur","[9]; Preemergence, Rate 500 g/ha",0
same,"Plant response rating, Cocklebur","[9]; preemergence, Rate 125 g/ha",0
same,"Plant response rating, Cocklebur","[9]; preemergence, Rate 250 g/ha",0
same,"Plant response rating, Rice",[11]; [12],0
same,"Plant response rating, Rice",[11]; [14],0
same,"Plant response rating, Rice",[11]; [13],0
same,"Plant response rating, Rice",[11]; [15],0
same,"Plant response rating, Morningglory",[10]; [12],0
same,"Plant response rating, Morningglory",[10]; [14],0
same,"Plant response rating, Morningglory",[10]; [13],0
same,"Plant response rating, Morningglory",[10]; [15],0
CC1CCc2cn(C3CCN(c4cccc(C(F)(F)F)c4)C3=O)nc21 (centres unmarked) [Compound 11],"Plant response rating, Surinam grass",[1]; [12],0
same,"Plant response rating, Surinam grass",[1]; [13],0
same,"Plant response rating, Foxtail, Giant",[2]; [12],0
same,"Plant response rating, Foxtail, Giant",[2]; [13],0
same,"Plant response rating, Barnyardgrass",[3]; [12],0
same,"Plant response rating, Barnyardgrass",[3]; [13],0
same,"Plant response rating, Corn",[4]; [12],0
same,"Plant response rating, Corn",[4]; [13],0
same,"Plant response rating, Lambsquarters",[5]; [12],0
same,"Plant response rating, Lambsquarters",[5]; [13],0
same,"Plant response rating, Crabgrass",[6]; [12],0
same,"Plant response rating, Crabgrass",[6]; [13],0
same,"Plant response rating, Velvetleaf",[7]; [12],0
same,"Plant response rating, Velvetleaf",[7]; [13],0
same,"Plant response rating, Pigweed",[8]; [12],0
same,"Plant response rating, Pigweed",[8]; [13],0
same,"Plant response rating, Cocklebur","[9]; Preemergence, Rate 500 g/ha",0
same,"Plant response rating, Cocklebur","[9]; preemergence, Rate 125 g/ha",0
same,"Plant response rating, Rice",[11]; [12],0
same,"Plant response rating, Rice",[11]; [13],0
same,"Plant response rating, Morningglory",[10]; [12],0
same,"Plant response rating, Morningglory",[10]; [13],0
O=C1C(n2cc(Cl)c(C3CC3)n2)CCN1c1cccc(C(F)(F)F)c1 (centres unmarked) [Compound 12],"Plant response rating, Surinam grass",[1]; [12],0
same,"Plant response rating, Surinam grass",[1]; [13],0
same,"Plant response rating, Foxtail, Giant",[2]; [12],0
same,"Plant response rating, Foxtail, Giant",[2]; [13],0
same,"Plant response rating, Barnyardgrass",[3]; [12],0
same,"Plant response rating, Barnyardgrass",[3]; [13],0
same,"Plant response rating, Corn",[4]; [12],0
same,"Plant response rating, Corn",[4]; [13],0
same,"Plant response rating, Lambsquarters",[5]; [12],0
same,"Plant response rating, Lambsquarters",[5]; [13],0
same,"Plant response rating, Crabgrass",[6]; [12],0
same,"Plant response rating, Crabgrass",[6]; [13],0
same,"Plant response rating, Velvetleaf",[7]; [12],0
same,"Plant response rating, Velvetleaf",[7]; [13],0
same,"Plant response rating, Pigweed",[8]; [12],0
same,"Plant response rating, Pigweed",[8]; [13],0
same,"Plant response rating, Cocklebur","[9]; Preemergence, Rate 500 g/ha",0
same,"Plant response rating, Cocklebur","[9]; preemergence, Rate 125 g/ha",0
same,"Plant response rating, Rice",[11]; [12],0
same,"Plant response rating, Rice",[11]; [13],0
same,"Plant response rating, Morningglory",[10]; [12],0
same,"Plant response rating, Morningglory",[10]; [13],0
CCC(C)c1nn(C2CCN(c3cccc(C(F)(F)F)c3)C2=O)cc1Cl (centres unmarked) [Compound 13],"Plant response rating, Surinam grass",[1]; [12],0
same,"Plant response rating, Surinam grass",[1]; [13],0
same,"Plant response rating, Foxtail, Giant",[2]; [12],0
same,"Plant response rating, Foxtail, Giant",[2]; [13],0
same,"Plant response rating, Barnyardgrass",[3]; [12],0
same,"Plant response rating, Barnyardgrass",[3]; [13],0
same,"Plant response rating, Corn",[4]; [12],0
same,"Plant response rating, Corn",[4]; [13],0
same,"Plant response rating, Lambsquarters",[5]; [12],0
same,"Plant response rating, Lambsquarters",[5]; [13],0
same,"Plant response rating, Crabgrass",[6]; [12],0
same,"Plant response rating, Crabgrass",[6]; [13],0
same,"Plant response rating, Velvetleaf",[7]; [12],0
same,"Plant response rating, Velvetleaf",[7]; [13],0
same,"Plant response rating, Pigweed",[8]; [12],0
same,"Plant response rating, Pigweed",[8]; [13],0
same,"Plant response rating, Cocklebur","[9]; Preemergence, Rate 500 g/ha",0
same,"Plant response rating, Cocklebur","[9]; preemergence, Rate 125 g/ha",0
same,"Plant response rating, Rice",[11]; [12],0
same,"Plant response rating, Rice",[11]; [13],0
same,"Plant response rating, Morningglory",[10]; [12],0
same,"Plant response rating, Morningglory",[10]; [13],0
"CC(C)(C)c1ccn(C2CCN(c3cccc(C(F)(F)F)c3)C2=O)n1 (centres unmarked) [Example 3, 3-[3-(1,1-dimethylethyl)-1H-pyrazol-1-yl]-1-[3-(trifluoromethyl)phenyl]-2-pyrrolidinone]","Plant response rating, Surinam grass",[1]; [12],70
same,"Plant response rating, Surinam grass",[1]; [13],40
same,"Plant response rating, Foxtail, Giant",[2]; [12],80
same,"Plant response rating, Foxtail, Giant",[2]; [13],40
same,"Plant response rating, Barnyardgrass",[3]; [12],100
same,"Plant response rating, Barnyardgrass",[3]; [13],80
same,"Plant response rating, Corn",[4]; [12],30
same,"Plant response rating, Corn",[4]; [13],0
same,"Plant response rating, Lambsquarters",[5]; [12],100
same,"Plant response rating, Lambsquarters",[5]; [13],100
same,"Plant response rating, Crabgrass",[6]; [12],100
same,"Plant response rating, Crabgrass",[6]; [13],70
same,"Plant response rating, Velvetleaf",[7]; [12],0
same,"Plant response rating, Velvetleaf",[7]; [13],0
same,"Plant response rating, Pigweed",[8]; [12],100
same,"Plant response rating, Pigweed",[8]; [13],100
same,"Plant response rating, Cocklebur","[9]; Preemergence, Rate 500 g/ha",0
same,"Plant response rating, Cocklebur","[9]; preemergence, Rate 125 g/ha",0
same,"Plant response rating, Morningglory",[10]; [12],0
same,"Plant response rating, Morningglory",[10]; [13],0
